Measured values taken from patent publication US20050014849A1, “Antifungal phenylethylene” (priority 2001, published 2005).
≈ marks a conversion by molar mass, not a printed value. Where “and” joins values, the source holds several entries; their conditions need not be identical. Identical values can stand only once.

Columns and labels:
[1] = tested on: C. viswanathii ATCC 22981; experiment: Broth macrodilution MIC/MFC; assay type: cell-based, Candida viswanathii
Protocol: TMPN was screened against yeasts by the broth macrodilution assay according to the NCCLS [7]. Yeasts were suspended and diluted as recommended to yield final inocula ranging from 0.5-2.5×10^3 cfu/ml. Tests were performed in sterile 12 by 75 mm plastic tubes containing two-fold dilutions of TMPN in 0.165 M morpholinepropanesulfonic acid buffered RPMI 1640 medium (pH 7.0). One tube was again left drug free (but contained an equivalent volume of DMSO) for a turbidity control. Tubes were incubated without agitation at the appropriate temperature (see Fungal Strains section above). MICs were determined after 72 h for Cryptococcus and after 48 h for other yeast genera. The MIC was defined as the lowest concentration of TMPN that inhibited all visible growth of the test organism (optically clear).
(§1) Minimum fungicidal concentrations (MFCs) were determined by subculturing 0.1 ml from each tube with no visible growth in the MIC broth macrodilution series onto the appropriate drug-free plates (see Fungal Strains section above).

[2] = tested on: Aspergillus fumigatus ATCC 96918; experiment: Broth macrodilution MIC/MFC, filamentous fungi; assay type: cell-based; settings: for MFC / MIC: Aspergillus fumigatus
Protocol: Susceptibility testing of filamentous fungi was also conducted. Broth macrodilution susceptibility testing of P. lilacinus, Rhizopus spp. and Aspergillus spp. was performed in accordance with a proposed standardized procedure with slight modification. To induce conidium and sporangiospore formation, fungi were grown on PDA slants at 35° C. for 6 days (P. lilacinus, Rhizopus spp., all Aspergillus species except A. nidulans) or 3 days (A. nidulans). Fungal slants were covered with sterile 0.85% NaCl (P. lilacinus, Rhizopus spp., all Aspergillus species except A. nidulans) or 0.05% Tween 80 (A. nidulans), and suspensions were made by gently probing the colonies with the tip of a sterile Pasteur pipette. The resulting mixture of hyphal fragments and conidia or sporangiospores was withdrawn and transferred to a sterile clear microcentrifuge tube, and heavy particles were allowed to settle for 10 min. The upper homogenous suspension was transferred to a sterile microcentrifuge tube, vortexed for 15 s, adjusted spectrophotometrically, and diluted in sterile 0.165 M MOPS-buffered RPMI medium, pH 7.0, to yield final inocula ranging from 0.5-2.5×10^3 cfu/ml. Susceptibility to TMPN was then determined by broth macrodilution as described above for yeast isolates. MICs were read after 48 h The MIC was defined as the lowest concentration of TMPN that inhibited all visible growth of the test organism (optically clear).
as §1
Possible host effects were also evaluated. Broth macrodilution assays were performed with RPMI medium prepared at pH 5, pH 6, and pH 7, and in RPMI medium with and without 50% normal human serum (Lampire Biological Labs). The pH experiments were performed twice on separate days.

C. albicans (ATCC 90028) = experiment: Frequency of occurrence of spontaneous mutants; assay type: cell-based, Candida albicans; settings: four times the broth macrodilution MIC
Protocol: Determination of the frequency of occurrence of spontaneous mutants was performed as previously described. Overnight cultures of C neoformans (ATCC 90112), C. albicans (ATCC 90028) and Trichosporon inkin (ATCC 18020) were diluted to an OD530 nm=0.3. 0.1 ml of each preparation was spread onto SDA plates containing four or eight times the broth macrodilution MIC of TMPN. The starting inoculum for each organism was also diluted and plated onto drug-free SDA plates for determination of cfu/ml. After a 48 h incubation at the appropriate temperature (see Fungal Strains section above), the number of colonies on drug-supplemented SDA was counted. The frequency of occurrence of spontaneous mutants was calculated by dividing the number of colonies on drug-containing plates by the number of colonies in the inoculum. When no colonies were visualized on drug-containing plates, the calculation was (<) 1 colony divided by the number of colonies in the inoculum.

CNS SF-295 = experiment: Sulforhodamine B cancer cell growth inhibition; assay type: cell-based; settings: Homo sapiens, 48 h, read-out: GI50 (inhibition of 50% of cell growth)
Protocol: (§2) An investigation TMPN's in vitro antineoplastic activity was also conducted. This investigation included an analysis of both cell growth, and of the effects of TMPN upon tubulin. Inhibition of cancer cell growth was assessed using the Sulforhodamine B assay as previously described. Briefly, cells in 5% fetal calf serum/RPMI-1640 were inoculated into 96 well plates, incubated 24 h and 10-fold dilutions of TMPN added. After a 48 h incubation, plates were fixed with trichloroacetic acid, washed, stained with Sulforhodamine B and read with an automated microtiter plate reader.

Colon KM20L2 = experiment: Sulforhodamine B cancer cell growth inhibition; assay type: cell-based; settings: Homo sapiens, KM-20L2, 48 h, read-out: GI50 (inhibition of 50% of cell growth)
Protocol: as §2

Lung-NSC NCI-H460 = experiment: Sulforhodamine B cancer cell growth inhibition; assay type: cell-based; settings: Homo sapiens, 48 h, read-out: GI50 (inhibition of 50% of cell growth)
Protocol: as §2

Ovarian OVCAR-3 = experiment: Sulforhodamine B cancer cell growth inhibition; assay type: cell-based; settings: Homo sapiens, 48 h, read-out: GI50 (inhibition of 50% of cell growth)
Protocol: as §2

Pancreas BXPC-3 = experiment: Sulforhodamine B cancer cell growth inhibition; assay type: cell-based; settings: Homo sapiens, 48 h, read-out: GI50 (inhibition of 50% of cell growth)
Protocol: as §2

Prostate DU-145 = experiment: Sulforhodamine B cancer cell growth inhibition; assay type: cell-based; settings: Homo sapiens, 48 h, read-out: GI50 (inhibition of 50% of cell growth)
Protocol: as §2

bovine brain tubulin = tested on: T1, bovine brain tubulin; experiment: Tubulin polymerization assay; assay type: biochemical; settings: 1 mg/ml tubulin; 20 min incubation at 30° C.
T1 construct: Electrophoretically homogeneous bovine brain tubulin [12]
Protocol: Electrophoretically homogeneous bovine brain tubulin [12] was used in studies to evaluate the effects of TMPN on in vitro tubulin polymerization and the binding of […] (Dupont-NEN) to tubulin. These studies were performed as described previously. In the polymerization assay, varying drug concentrations were added to 1 mg/ml tubulin to determine the amount of drug that would inhibit the extent of the reaction by 50% (20 min incubation at 30° C.) (IC50 value). In the colchicine binding assay, the effect of varying drug concentrations on the binding of 2 μg/ml colchicine to 100 μg/ml tubulin was measured after 10 min at 37° C. (control reaction about 50% complete).

[3] = Aspergillus fumigatus ATCC 96918
[4] = ATCC96918, Aspergillus fumigatus ATCC 96918, 50% human serum
[5] = ATCC96918, Aspergillus fumigatus ATCC 96918, no serum
[6] = ATCC96918, pH 5, Aspergillus fumigatus ATCC 96918, pH 5
[7] = ATCC96918, pH 5, Aspergillus fumigatus ATCC 96918, pH 5, repeat experiment
[8] = ATCC96918, pH 6, Aspergillus fumigatus ATCC 96918, pH 6
[9] = ATCC96918, pH 6, Aspergillus fumigatus ATCC 96918, pH 6, repeat experiment
[10] = ATCC96918, pH 7, Aspergillus fumigatus ATCC 96918, pH 7
[11] = ATCC96918, pH 7, Aspergillus fumigatus ATCC 96918, pH 7, repeat experiment

## COc1cc(C=C[N+](=O)[O-])cc(OC)c1OC [TMPN, 1-(3′,4′,5′-trimethoxyphenyl)-2-nitro-ethylene]
[1]
  MFC Range: >64 µg/mL
  MIC Range: 32 µg/mL (≈ 134 µM)
[2]; [3]
  MFC Range: >64 µg/mL
  MIC Range: 8 µg/mL (≈ 33.4 µM)
[2]; [4]
  MFC: > 64 µg/mL
  MIC: 16 µg/mL (≈ 66.9 µM)
[2]; [5]
  MFC: 16 µg/mL (≈ 66.9 µM)
  MIC: 8 µg/mL (≈ 33.4 µM)
[2]; [6]
  MFC: 32 µg/mL (≈ 134 µM)
  MIC: 4 µg/mL (≈ 16.7 µM)
[2]; [7]
  MFC: > 64 µg/mL
  MIC: 8 µg/mL (≈ 33.4 µM)
[2]; [8]
  MFC: 32 µg/mL (≈ 134 µM)
  MIC: 4 µg/mL (≈ 16.7 µM)
[2]; [9]
  MFC: > 64 µg/mL
  MIC: 8 µg/mL (≈ 33.4 µM)
[2]; [10]
  MFC: 32 µg/mL (≈ 134 µM)
  MIC: 4 µg/mL (≈ 16.7 µM)
[2]; [11]
  MFC: > 64 µg/mL
  MIC: 8 µg/mL (≈ 33.4 µM)
C. albicans (ATCC 90028)
  frequency of occurrence of single-step resistant mutants: ≤ 10^−6
CNS SF-295
  GI50: 2 µg/mL (≈ 8.36 µM)
Colon KM20L2
  GI50: 1.4 µg/mL (≈ 5.85 µM)
Lung-NSC NCI-H460
  GI50: 1.4 µg/mL (≈ 5.85 µM)
Ovarian OVCAR-3
  GI50: 1.8 µg/mL (≈ 7.52 µM)
Pancreas BXPC-3
  GI50: 1.6 µg/mL (≈ 6.69 µM)
Prostate DU-145
  GI50: 1.1 µg/mL (≈ 4.6 µM)
Bovine brain tubulin
  IC50 for inhibition of the extent of tubulin assembly: 0.60 µg/mL and 0.60 ± 0.07 µg/mL
